The results in this text go back to patent publication US10981932B2, “Macrocyclic indole derivatives” (Bayer Aktiengesellschaft, priority 2016, dated 2021).

One data set concerns the target MCL-1 (Homo sapiens, UniProt Q07820). As to the kind of experiment: Protein-protein interaction assay MCL-1/Noxa BH3 peptide (MCL-1 assay), TR-FRET. Format: binding. Conditions: MBP-MCL-1 / Noxa BH3-derived peptide, median. The method, boiled down:
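Displacement of the biotinylated Noxa BH3 peptide from MBP-tagged human MCL-1 (1 nM) is detected by time-resolved FRET. Compounds are tested in duplicate across eleven concentrations up to 20 μM, incubated 1 h at 22 °C and overnight at 4 °C, and IC50 is fitted with a four-parameter equation.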
(In general: TR-FRET usually uses a lanthanide donor and a delayed reading to cut background.)

Data set [1] has as its system SUDHL5. Description: Induction of caspase-3/7 activity (Caspase-Glo 3/7), SUDHL5. Conditions: caspase-3/7 induction, SUDHL5 cells, 3 h treatment, median. Format: cell-based. Put shortly:
(§1)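 Caspase-Glo 3/7 luminescence, 3 h compound exposure, 37 °C, humidified. Minus medium-only blank. EC50 fit: C0=1, plateau = reference max induction.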

Data set [2] concerns SUDHL10. Description: Induction of caspase-3/7 activity (Caspase-Glo 3/7), SUDHL10. The class given is cell-based. Conditions: caspase-3/7 induction, SUDHL10 cells, 3 h treatment, median. The method, boiled down: as §1
Data set [3] has as its system SUDHL5. As to the kind of experiment: Anti-proliferative effect (CellTiter-Glo, 72 h), SUDHL5. Format: cell-based. Conditions: SUDHL5 cells, antiproliferation, median, read-out: Antiproli SUDHL5 [M] (median). Put shortly: (§2)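 Viable cells quantified with CellTiter-Glo after 72 h at 37 °C; rim wells excluded; day 0 plate as baseline.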
In general terms: In ATP-based viability assays light output follows the ATP content of the culture.

The test system of another data set is A2780. As to the kind of experiment: Anti-proliferative effect (CellTiter-Glo, 72 h), A2780. Format: cell-based. Conditions: A2780 cells, median, read-out: IC50 antiproliferation assay A2780 [M] (median). Put shortly:
as §2

A further data set deals with MV-4-11. Description: Anti-proliferative effect (CellTiter-Glo, 72 h), MV-4-11. Format: cell-based. Conditions: MV-4-11 cells, median, read-out: IC50 antiproliferation assay MV-4-11 [M] (median). Put shortly:
as §2

Data set [4] deals with SUDHL5. As to the kind of experiment: Induction of cytotoxicity (CellTiter-Glo, 5 h), SUDHL5.
The subject of data set [5] is SUDHL10. As to the kind of experiment: Induction of cytotoxicity (CellTiter-Glo, 5 h), SUDHL10.
Where [6] appears, read: read-out: Cytotox SUDHL5 [M] (median), SUDHL5 cells, cytotoxicity induction, CellTiter-Glo, 5 h incubation, median.
[7] abbreviates: read-out: Cytotox SUDHL10 [M] (median), SUDHL10 cells, cytotoxicity induction, CellTiter-Glo, 5 h incubation, median.
[8] abbreviates: read-out: Cytotox SUDHL5 [M] (median), SUDHL5 cells, cytotoxicity induction, CellTiter-Glo, 5 h, median.
Setting [9] is: read-out: Cytotox SUDHL10 [M] (median), SUDHL10 cells, cytotoxicity induction, CellTiter-Glo, 5 h, median.
Setting [10] is: Homo sapiens, SU-DHL-5, 72 h, 72 h incubation.
Where [11] appears, read: Homo sapiens, SU-DHL-5, 5 h, read-out: Cytotox SUDHL5 [M] (median), SUDHL5 cells, cytotoxicity induction, CellTiter-Glo, 5 h incubation, median.
Where [12] appears, read: Homo sapiens, SU-DHL10, 5 h, read-out: Cytotox SUDHL10 [M] (median), SUDHL10 cells, cytotoxicity induction, CellTiter-Glo, 5 h incubation, median.

“And” between values parts separate entries of the source, which are not always exact repeats. Equal entries are not always repeated. Structures can show the parent of a compound that is named as a salt. Where two headings read alike, the source gives them in different places.

Chain of MCL-1 (Q07820 whole entry): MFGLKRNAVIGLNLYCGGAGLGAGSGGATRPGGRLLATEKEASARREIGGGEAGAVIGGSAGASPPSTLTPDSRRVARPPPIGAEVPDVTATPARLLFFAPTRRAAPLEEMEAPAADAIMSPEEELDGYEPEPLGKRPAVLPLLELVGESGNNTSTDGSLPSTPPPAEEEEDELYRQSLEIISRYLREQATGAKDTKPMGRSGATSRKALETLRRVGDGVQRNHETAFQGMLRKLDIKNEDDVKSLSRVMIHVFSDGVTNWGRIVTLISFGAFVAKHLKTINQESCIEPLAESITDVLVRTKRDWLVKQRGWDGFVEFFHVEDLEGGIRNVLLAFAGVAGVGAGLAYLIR

What is called EC50 is the concentration that produces a half-maximal response. Read a low EC50 as greater potency. In the case of `COCc1nn(C)c2c1-c1cccc3c(CCCOc4cccc5ccccc45)c(C(=O)O)n(c13)CCCCCOC2` (single isomer, unassigned; enantiomer 2) [Example 179, 3-(methoxymethyl)-1-methyl-7-[3-(naphthalen-1-yloxy)propyl]-1,11,12,13,14,16-hexahydro-10H-pyrazolo[3′,4′:3,4][1,7]oxazacyclododecino[5,6,7-hi]indole-8-carboxylic acid-N-ethylethanamine Salt (Enantiomer 2)], the IC50 at MCL-1 is 0.00943 µM; with SUDHL5 [3] (72 h incubation), 1.48e-05 M; in the data set with A2780 it was over 3.3e-05 M; in the data set with MV-4-11 (Homo sapiens, MV4-11, 72 h), 9.83e-06 M; with SUDHL5 [4] (setting [6]) it was 1.22e-05 M; with SUDHL10 [5] (setting [7]), > 3.3e-05 M and 3.15e-05 M. In addition, the results for the EC50 in the data set with SUDHL5 [1] and with SUDHL10 [2] were 11.9 µM and 26.9 µM, respectively.

As for `CCc1c2c(nn1CCN1CCOCC1)COCCCCn1c(C(=O)O)c(CCCOc3cccc4ccccc34)c3ccc(C)c-2c31` (single isomer, unassigned; enantiomer 2) [Example 206, 3-ethyl-4-methy-2-[2-(morpholin-4-yl)ethyl]-7-[3-(naphthalen-1-yloxy)propyl]-2,10,11,1213,15-hexahydropyrazolo[4′3′:9,10][1,6]oxazacycloundecino[8,7,6-hi]indole-carboxylic Acid (Enantiomer 2)], the IC50 at MCL-1 is 0.0155 µM; with SUDHL5 [3] (72 h incubation), 1.03e-05 M; in the data set with A2780, 2.28e-05 M; in the data set with MV-4-11 it was 1.92e-05 M; with SUDHL5 [4] (setting [6]), 1.4e-05 M; in the data set with SUDHL10 [5] (setting [7]), 1.6e-05 M. In addition, the EC50 in the data set on SUDHL5 [1] came to 13.1 µM; with SUDHL10 [2], 17.5 µM.

Turning to `Cc1c2c(nn1C)COCCCCn1c(C(=O)O)c(CCCOc3cccc4cc(F)ccc34)c3cccc-2c31` (single isomer, unassigned; enantiomer 2) [Example 302, (+)-7-{3-[(6-fluoronaphthalen-1-yl)oxy]propyl}-2,3-dimethyl-2,10,11,12,13,15-hexahydropyrazolo[4′,3′:9,10][1,6]oxazacycloundecino[8,7,6-hi]indole-8-carboxylic Acid (Enantiomer 2)], the IC50 against MCL-1 turned out to be 0.00126 µM; in the data set on SUDHL5 [3] (72 h) it was 1.99e-06 M; in the data set with A2780 (Homo sapiens, A2780, 72 h), 2.25e-05 M; in the data set on MV-4-11, 4.78e-06 M; in the data set on SUDHL5 [4] (setting [8]) it was 1.05e-06 M; with SUDHL10 [5] (setting [9]) it was 3.49e-06 M. Also, the half-maximal effective concentration (EC50) in the data set on SUDHL5 [1] was 0.674 µM; with SUDHL10 [2], 4.2 µM.

With `Cn1nc(COCc2ccc(C#N)cc2)c2c1COCCCCn1c(C(=O)O)c(CCCOc3cccc4ccccc34)c3cccc-2c31` (single isomer, unassigned; enantiomer 2) [Example 348, 3-{[(4-cyanobenzyl)oxy]methyl}-1-methyl-7-[3-(naphthalen-1-yloxy)propyl]-1,10,11,12,13,15-hexahydropyrazolo[4′,3′:9,10][1,6]oxazacycloundecino[8,7,6-hi]indole-8-carboxylic acid-N-ethylethanamine Salt (Enantiomer 2)], the IC50 amounted to 0.0196 µM on MCL-1; 5.12e-06 M in the data set on SUDHL5 [3] (72 h); 1.46e-05 M in the data set on A2780; 4.15e-06 M in the data set on MV-4-11; 1.38e-05 M in the data set on SUDHL5 [4] (setting [8]); 2.81e-05 M in the data set on SUDHL10 [5] (setting [9]). For the same molecule, the values for the EC50 in the data set with SUDHL5 [1] and with SUDHL10 [2] were 14.6 µM and 16.8 µM, respectively.

Regarding `COc1ccc2c(CCCOc3cccc4ccccc34)c(C(=O)O)n3c2c1-c1c(nn(C)c1C)COCCCC3` (single isomer, unassigned; enantiomer 2) [Example 351, 4-methoxy-2,3-dimethyl-7-[3-(naphthalen-1-yloxy)propyl]-2,10,11,12,13,15-hexahydropyrazolo[4′,3′:9,10][1,6]oxazacycloundecino[8,7,6-hi]indole-8-carboxylic acid-N-ethylethanamine Salt (Enantiomer 2)], the IC50 is 2.03 µM on MCL-1; 2.07e-05 M in the data set on SUDHL5 [3] (72 h); over 3.3e-05 M with A2780; over 3.3e-05 M in the data set on MV-4-11; over 3.3e-05 M in the data set on SUDHL5 [4] (setting [8]); over 3.3e-05 M in the data set on SUDHL10 [5] (setting [9]). The EC50 with SUDHL5 [1] and in the data set on SUDHL10 [2] was over 33 µM throughout.

Take `COc1ccc2c(CCCOc3cccc4ccccc34)c(C(=O)O)n3c2c1-c1c(C)nn(C)c1COCCCC3` (single isomer, unassigned; enantiomer 2) [Example 353, 4-methoxy-1,3-dimethyl-7-[3-(naphthalen-1-yloxy)propyl]-1,10,11,12,13,15-hexahydropyrazolo[4′,3′:9,10][1,6]oxazacycloundecino[8,7,6-hi]indole-8-carboxylic Acid Ammonium Salt (Enantiomer 2)]: the IC50 on MCL-1 is 1.28 µM; with SUDHL5 [3] (72 h), 8.32e-06 M; with A2780 it was 2.17e-05 M; with MV-4-11, 3.11e-05 M; in the data set on SUDHL5 [4] (setting [8]), over 3.3e-05 M; in the data set with SUDHL10 [5] (setting [9]) it was over 3.3e-05 M. Further, the EC50 in the data set with SUDHL5 [1] and in the data set on SUDHL10 [2] was over 33 µM throughout.

`Cc1nn(C)c2c1-c1cccc3c(CCCOc4cccc5ccccc45)c(C(=O)O)n(c13)CCCCCN(C)C2` [Example 237, (rac)-1,3,15-Trimethyl-7-[3-(naphthalen-1-yloxy)propyl]-1,10,11,12,13,14,15,16-octahydropyrazolo[4′,3′:4,5][1,7]diazacyclododecino[3,2,1-hi]indole-8-carboxylic Acid]: the IC50 against MCL-1 came to 0.00499 µM; in the data set on SUDHL5 [3] (setting [10]) it was 5.65e-06 M; in the data set on A2780 (Homo sapiens, A2780, 72 h), 1.9e-05 M; in the data set with MV-4-11 (Homo sapiens, MV4-11, 72 h), 1.35e-05 M; with SUDHL5 [4] (setting [11]), 6.6e-06 M; with SUDHL10 [5] (setting [12]), 1.18e-05 M. For the same molecule, the concentration for a half-maximal effect (EC50) in the data set with SUDHL5 [1] (Homo sapiens, SU-DHL-5, 3 h) was determined as 5.55 µM; in the data set on SUDHL10 [2] (Homo sapiens, SU-DHL10, 3 h), 15.7 µM.

Take `Cc1nn(C)c2c1-c1cccc3c(CCCOc4cccc5c4CCCC5)c(C(=O)O)n(c13)CCCCCN(C)C2` [Example 240, (rac)-1,3,15-Trimethyl-7-[3-(5,6,7,8-tetrahydronaphthalen-1-yloxy)propyl]-1,10,11,12,13,14,15,16-octahydropyrazolo[4′,3′:4,5][1,7]diazacyclododecino[3,2,1-hi]indole-8-carboxylic Acid]: the IC50 on MCL-1 is 0.00885 µM; in the data set with SUDHL5 [3] (setting [10]) it was 1.19e-05 M; in the data set with A2780 (Homo sapiens, A2780, 72 h) it was over 3.3e-05 M; in the data set on MV-4-11 (Homo sapiens, MV4-11, 72 h), 2.56e-05 M; in the data set on SUDHL5 [4] (setting [11]), 1.26e-05 M; in the data set with SUDHL10 [5] (setting [12]), over 3.3e-05 M. Besides, the EC50 in the data set on SUDHL5 [1] (Homo sapiens, SU-DHL-5, 3 h) is 11.6 µM; in the data set with SUDHL10 [2] (Homo sapiens, SU-DHL10, 3 h) it was over 33 µM.

As to `Cc1nn(C)c2c1-c1cccc3c(CCCOc4cccc5cc(C(F)(F)F)ccc45)c(C(=O)O)n(c13)CCCCOC2` [Example 364, (rac)-10,12-dimethyl-1-(3-((6-(trifluoromethyl)naphthalen-1-yl)oxy)propyl) -4,5,67,9,10-hexahydropyrazolo[4′,3′:9,10][1,6]oxaazacycloundecino[8,7,6-hi]indole-2-carboxylic Acid], the IC50 was 0.0633 µM on MCL-1; 9.54e-06 M in the data set with SUDHL5 [3] (Homo sapiens, SU-DHL-5, 72 h, 72 h); 1.69e-05 M in the data set with A2780 (Homo sapiens, A2780, 72 h); 2.42e-05 M with MV-4-11 (Homo sapiens, MV4-11, 72 h); 1.92e-05 M with SUDHL5 [4] (Homo sapiens, SU-DHL-5, 5 h, read-out: Cytotox SUDHL5 [M] (median), SUDHL5 cells, cytotoxicity induction, CellTiter-Glo, 5 h, median); over 3.3e-05 M in the data set with SUDHL10 [5] (Homo sapiens, SU-DHL10, 5 h, read-out: Cytotox SUDHL10 [M] (median), SUDHL10 cells, cytotoxicity induction, CellTiter-Glo, 5 h, median). Moreover, the IC50 with SUDHL10 [5] (setting [9]) was determined as 2.04e-05 M. Also, the EC50 was 24.2 µM in the data set on SUDHL5 [1] (Homo sapiens, SU-DHL-5, 3 h) and over 33 µM with SUDHL10 [2] (Homo sapiens, SU-DHL10, 3 h).
